The source of these data is patent publication US8802712B2, “Pyrazoloquinolines” (Merck Patent GmbH, priority 2010, dated 2014).

The experiment deals with DNA-PK (Homo sapiens (Human), UniProt P78527). Description: DNA-PK/Biochemical Assay (FlashPlate kinase assay). The settings on record: 5 μM ATP, 90 min, room temperature. As to the method:
The kinase assay was carried out in streptavidin-coated […] microtitre FlashPlates®. To this end, 1.5 μg of the DNA-PK/protein complex and 100 ng of biotinylated substrate, such as, for example, […] biotin-NH2 (“biotin-DNA-PK peptide”), in a total volume of 36.5 μl (34.25 mM HEPES/KOH, 7.85 mM Tris-HCl, 68.5 mM KCl, 5 μM ATP, 6.85 mM MgCl2, 0.5 mM EDTA, 0.14 mM EGTA, 0.69 mM DTT, pH 7.4), were incubated at room temperature for 90 min with 500 ng of DNA from calf thymus, 0.1 μCi of 33P-ATP and 1.8% of DMSO per well with or without the test compound. The reaction was stopped using 50 μl/well of 200 mM EDTA. After incubation for a further 30 min at room temperature, the liquid was removed. Each well was washed three times with 100 μl of 0.9% sodium chloride solution. A non-specific reaction (blank value) was determined using 10 μM of a proprietary kinase inhibitor. The radioactivity measurement was carried out by means of a TopCount. IC50 values were calculated in RS1. • Literature: Kashishian et al. (2003) Molecular Cancer Therapeutics 1257.

Structures can show the parent of a compound that is named as a salt.

As to `COc1cc2ncc3c(c(-c4ccc(C#N)cc4)nn3C)c2cc1OCc1cnc2[nH]ccc2c1` [Compound 30, 4-[7-Methoxy-3-methyl-8-(1H-pyrrolo[2,3-b]pyridin-5-ylmethoxy)-3H-pyrazolo-[3,4-c]quinolin-1-yl]-benzonitrile], the IC50 was 100 to 500 nM.

`COc1cc2ncc3c(c(-c4ccc(C#N)cc4)nn3C)c2cc1OCc1ccc(-n2cncn2)cc1` [Compound 31, 4-[7-Methoxy-3-methyl-8-(4-1,2,4-triazol-1-ylbenzyloxy)-3H-pyrazolo[3,4-c]quinolin-1-yl]benzonitrile] had an IC50 of more than 500 nM.

With `COc1cc2ncc3c(c(-c4ccc(C#N)cc4)nn3C)c2cc1OCc1cccc(CN)c1` [Compound 32, 4-[8-(3-Aminomethyl-benzyloxy)-7-methoxy-3-methyl-3H-pyrazolo[3,4-c]-quinolin-1-yl]benzonitrile hydrochloride], the IC50 is 100 to 500 nM.

On to `COc1cc2ncc3c(c(-c4ccc(C#N)cc4)nn3C)c2cc1OCc1ccnc(N)c1` [Compound 33, 4-[8-(2-Aminopyridin-4-ylmethoxy)-7-methoxy-3-methyl-3H-pyrazolo[3,4-c]-quinolin-1-yl]benzonitrile], for which the concentration for half-maximal inhibition (IC50) was less than 100 nM.

`COc1cc2ncc3c(c(-c4ccc(C#N)cc4)nn3C)c2cc1OCc1cccs1` [Compound 34, 4-[7-Methoxy-3-methyl-8-(thiophen-2-ylmethoxy)-3H-pyrazolo[3,4-c]quinolin-1-yl]-benzonitrile] came in with an IC50 of less than 100 nM.

The molecule `COc1cc2ncc3c(c(-c4ccc(C#N)cc4)nn3C)c2cc1OCc1ccsc1` [Compound 35, 4-[7-Methoxy-3-methyl-8-(thiophen-3-ylmethoxy)-3H-pyrazolo[3,4-c]quinolin-1-yl]-benzonitrile] yielded an IC50 of less than 100 nM.

`COc1cc2ncc3c(c(-c4ccc(C#N)cc4)nn3C)c2cc1OCc1cc(Br)cs1` [Compound 36, 4-[8-(4-Bromothiophen-2-ylmethoxy)-7-methoxy-3-methyl-3H-pyrazolo[3,4-c]-quinolin-1-yl]benzonitrile] gave an IC50 of less than 100 nM.

As to `COc1cc2ncc3c(c(-c4ccc(C#N)cc4)nn3C)c2cc1OCc1cc2ccccc2s1` [Compound 37, 4-[8-(Benzo[b]thiophen-2-ylmethoxy)-7-methoxy-3-methyl-3H-pyrazolo[3,4-c]-quinolin-1-yl]benzonitrile], the IC50 is more than 500 nM.

Consider `COc1cc2ncc3c(c(-c4ccc(C#N)cc4)nn3C)c2cc1OCc1ccnc(C#N)c1` [Compound 38, 4-[1-(4-Cyanophenyl)-7-methoxy-3-methyl-3H-pyrazolo[3,4-c]quinolin-8-yl-oxymethyl]pyridine-2-nitrile], for which the IC50 lay in the range of 100 to 500 nM.

Molecule `COc1cc2ncc3c(c(-c4ccc(C#N)cc4)nn3C)c2cc1OCc1nccs1` [Compound 39, 4-[7-Methoxy-3-methyl-8-(thiazol-2-ylmethoxy)-3H-pyrazolo[3,4-c]quinolin-1-yl]-benzonitrile] gave an IC50 of less than 100 nM.

In the case of `COc1cc2ncc3c(c(-c4ccc(C#N)cc4)nn3C)c2cc1OCc1cccc(N(C)C)c1` [Compound 41, 4-[8-(3-Dimethylamino-benzyloxy)-7-methoxy-3-methyl-3H-pyrazolo[3,4-c]-quinolin-1-yl]benzonitrile], the IC50 was in the range of 100 to 500 nM.

`COc1cc2ncc3c(c(-c4ccc(C#N)cc4)nn3C)c2cc1OCc1cscn1` [Compound 42, 4-[7-Methoxy-3-methyl-8-(thiazol-4-ylmethoxy)-3H-pyrazolo[3,4-c]quinolin-1-yl]-benzonitrile] registered a half-maximal inhibitory concentration (IC50) of less than 100 nM.

Consider `COc1cc2ncc3c(c(-c4ccc(C#N)cc4)nn3C)c2cc1OCc1cncs1` [Compound 43, 4-[7-Methoxy-3-methyl-8-(thiazol-5-ylmethoxy)-3H-pyrazolo[3,4-c]quinolin-1-yl]-benzonitrile], for which the IC50 is less than 100 nM.

`COc1cc2ncc3c(c(-c4ccc(C#N)cc4)nn3C)c2cc1OCc1cccc(CN2CCN(C)CC2)c1` [Compound 44, 4-{7-Methoxy-3-methyl-8-[3-(4-methylpiperazin-1-yl-methyl)benzyloxy]-3H-pyrazolo[3,4-c]quinolin-1-yl}-benzonitrile]: the IC50 is more than 500 nM.

Molecule `COc1cc2ncc3c(c(-c4ccc(C#N)cc4)nn3C)c2cc1OCc1cccc(-c2csc(C)n2)c1` [Compound 45, 4-{7-Methoxy-3-methyl-8-[3-(2-methylthiazol-4-yl)-benzyloxy]-3H-pyrazolo-[3,4-c]quinolin-1-yl}-benzonitrile] had an IC50 of 100 to 500 nM.

Molecule `COc1cc2c(cc1OCCN(C)C)ncc1c2c(-c2ccc(C#N)cc2)nn1C` [Compound 46, 4-[7-(2-Dimethylamino-ethoxy)-8-methoxy-3-methyl-3H-pyrazolo[3,4-c]quinolin-1-yl]benzonitrile] registered an IC50 of more than 500 nM.

`COc1cc2c(cc1OCC(O)CO)ncc1c2c(-c2ccc(C#N)cc2)nn1C` (stereo not drawn) [Compound 47, 4-[7-(2,3-Dihydroxypropoxy)-8-methoxy-3-methyl-3H - pyrazolo[3,4-c]quinolin-1-yl]-benzonitrile] returned an IC50 of more than 500 nM.

Turning to `COc1cc2ncc3c(c(-c4ccc(C#N)cc4)nn3C)c2cc1OC(C(=O)NCCN(C)C)c1ccc(F)cc1` (stereo not drawn) [Compound 49, 2-[1-(4-Cyano-phenyl)-7-methoxy-3-methyl-3H-pyrazolo-[3,4-c]quinolin-8-yl-oxy]-N-(2-dimethyl-aminoethyl)-2-(4-fluorophenyl)-acetamide], the IC50 is 100 to 500 nM.

Turning to `COc1cc2ncc3c(c(-c4ccc(C#N)cc4)nn3C)c2cc1OC(C(=O)NCCN1CCNCC1)c1ccc(F)cc1` (stereo not drawn) [Compound 50, 2-[1-(4-Cyano-phenyl)-7-methoxy-3-methyl-3H-pyrazolo-[3,4-c]quinolin-8-yl-oxy]-2-(4-fluoro-phenyl)-N-(2 - piperazin-1-ylethyl)-acetamide], the IC50 was more than 500 nM.

As for `COc1cc2ncc3c(c(-c4ccc(C#N)cc4)nn3C)c2cc1OC(C(=O)NOCC#N)c1ccc(F)cc1` (stereo not drawn) [Compound 51, N-Cyanomethoxy-2-[1-(4-cyanophenyl)-7-methoxy-3-methyl-3H-pyrazolo[3,4-c]-quinolin-8-yloxy]-2-(4-fluorophenyl)-acetamide], the IC50 lay in the range of 100 to 500 nM.

With `COc1cc2ncc3c(c(-c4ccc(C#N)cc4)nn3C)c2cc1OC(C(=O)NCCS(N)(=O)=O)c1ccc(F)cc1` (stereo not drawn) [Compound 52, 2-[1-(4-Cyano-phenyl)-7-methoxy-3-methyl-3H-pyrazolo-[3,4-c]quinolin-8-yl-oxy]-2-(4-fluoro-phenyl)-N-(2-sulfamoylethyl)-acetamide], the IC50 lay in the range of 100 to 500 nM.

`COc1cc2ncc3c(c(-c4ccc(C#N)cc4)nn3C)c2cc1OC(C(=O)NO)c1ccc(F)cc1` (stereo not drawn) [Compound 53, 2-[1-(4-Cyano-phenyl)-7-methoxy-3-methyl-3H-pyrazolo-[3,4-c]quinolin-8-yloxy]-2-(4-fluoro-phenyl)-N-hydroxy-acetamide] came in with an IC50 of less than 100 nM.

In turn, `COc1cc2ncc3c(c(-c4ccc(C#N)cc4)nn3C)c2cc1OC(C(=O)NC(=N)N)c1ccc(F)cc1` (stereo not drawn) [Compound 54, N-[2-[1-(4-Cyano-phenyl)-7-methoxy-3-methyl-3H-pyrazolo-[3,4-c]quinolin-8-yl-oxy]-2-(4-fluoro-phenyl)acetyl]-guanidine] returned an IC50 of less than 100 nM.

The molecule `COCCNC(=O)C(Oc1cc2c(cc1OC)ncc1c2c(-c2ccc(C#N)cc2)nn1C)c1ccc(F)cc1` (stereo not drawn) [Compound 55, 2-[1-(4-Cyano-phenyl)-7-methoxy-3-methyl-3H-pyrazolo-[3,4-c]quinolin-8-yloxy]-2-(4-fluoro-phenyl)-N-(2-methoxyethyl)-acetamide] yielded an IC50 of less than 100 nM.
